Data as given in US20040102622A1, “Modulation of hepatocyte growth factor receptor expression” (Isis Pharmaceuticals Inc., priority 2002, published 2004).

System: human hepatocyte growth factor receptor mRNA

Row | Substance | inhibition of human hepatocyte growth factor receptor expression
1 | ISIS 155123: 2′-MOE gapmer, phosphorothioate backbone, sequence gcaaagctgtggtaaactct (antisense GCAAAGCTGTGGTAAACTCT; all phosphorothioate, sugars by position and methylation of C not given here; 2'-MOE gapmer) | at least 35%
2 | ISIS 155124: 2′-MOE gapmer, phosphorothioate backbone, sequence tatgatgtctcccagaagga (antisense TATGATGTCTCCCAGAAGGA; all phosphorothioate, sugars by position and methylation of C not given here; 2'-MOE gapmer) | at least 35%
3 | ISIS 155125: 2′-MOE gapmer, phosphorothioate backbone, sequence ggaaactgatcttctggaaa (antisense GGAAACTGATCTTCTGGAAA; all phosphorothioate, sugars by position and methylation of C not given here; 2'-MOE gapmer) | at least 35%
4 | ISIS 155126: 2′-MOE gapmer, phosphorothioate backbone, sequence ctgtgcatttcaatgtattc (antisense CTGTGCATTTCAATGTATTC; all phosphorothioate, sugars by position and methylation of C not given here; 2'-MOE gapmer) | at least 35%
5 | ISIS 155127: 2′-MOE gapmer, phosphorothioate backbone, sequence gatctggttgaactattact (antisense GATCTGGTTGAACTATTACT; all phosphorothioate, sugars by position and methylation of C not given here; 2'-MOE gapmer) | at least 35%
6 | ISIS 155128: 2′-MOE gapmer, phosphorothioate backbone, sequence actgtgaatttttcatccag (antisense ACTGTGAATTTTTCATCCAG; all phosphorothioate, sugars by position and methylation of C not given here; 2'-MOE gapmer) | at least 35%
7 | ISIS 155129: 2′-MOE gapmer, phosphorothioate backbone, sequence gattgggtccgtaaaaatgc (antisense GATTGGGTCCGTAAAAATGC; all phosphorothioate, sugars by position and methylation of C not given here; 2'-MOE gapmer) | at least 35%
8 | ISIS 155130: 2′-MOE gapmer, phosphorothioate backbone, sequence tctctgaactcaggtaaaac (antisense TCTCTGAACTCAGGTAAAAC; all phosphorothioate, sugars by position and methylation of C not given here; 2'-MOE gapmer) | at least 35%
9 | ISIS 155132: 2′-MOE gapmer, phosphorothioate backbone, sequence gattccctcggtcagaaatt (antisense GATTCCCTCGGTCAGAAATT; all phosphorothioate, sugars by position and methylation of C not given here; 2'-MOE gapmer) | at least 35%
10 | ISIS 155133: 2′-MOE gapmer, phosphorothioate backbone, sequence aaaccatttctgtagttggg (antisense AAACCATTTCTGTAGTTGGG; all phosphorothioate, sugars by position and methylation of C not given here; 2'-MOE gapmer) | at least 35%
11 | ISIS 209521: 2′-MOE gapmer, phosphorothioate backbone, sequence ggaaccagtggagaagtcag (antisense GGAACCAGTGGAGAAGTCAG; all phosphorothioate, sugars by position and methylation of C not given here; 2'-MOE gapmer) | at least 35%
12 | ISIS 209522: 2′-MOE gapmer, phosphorothioate backbone, sequence agaggtttatctttcggtgc (antisense AGAGGTTTATCTTTCGGTGC; all phosphorothioate, sugars by position and methylation of C not given here; 2'-MOE gapmer) | at least 35%
13 | ISIS 209523: 2′-MOE gapmer, phosphorothioate backbone, sequence gggccttcattatgagaggt (antisense GGGCCTTCATTATGAGAGGT; all phosphorothioate, sugars by position and methylation of C not given here; 2'-MOE gapmer) | at least 35%
14 | ISIS 209524: 2′-MOE gapmer, phosphorothioate backbone, sequence ctcatgtagaatgacattct (antisense CTCATGTAGAATGACATTCT; all phosphorothioate, sugars by position and methylation of C not given here; 2'-MOE gapmer) | at least 35%
15 | ISIS 209525: 2′-MOE gapmer, phosphorothioate backbone, sequence ctggtccgtcaaaaacataa (antisense CTGGTCCGTCAAAAACATAA; all phosphorothioate, sugars by position and methylation of C not given here; 2'-MOE gapmer) | at least 35%
16 | ISIS 209526: 2′-MOE gapmer, phosphorothioate backbone, sequence ttgatagggaatgcacacat (antisense TTGATAGGGAATGCACACAT; all phosphorothioate, sugars by position and methylation of C not given here; 2'-MOE gapmer) | at least 35%
17 | ISIS 209527: 2′-MOE gapmer, phosphorothioate backbone, sequence cgcttcacagcctgatgaat (antisense CGCTTCACAGCCTGATGAAT; all phosphorothioate, sugars by position and methylation of C not given here; 2'-MOE gapmer) | at least 35%
18 | ISIS 209528: 2′-MOE gapmer, phosphorothioate backbone, sequence ttgggaaaaccttgtagatt (antisense TTGGGAAAACCTTGTAGATT; all phosphorothioate, sugars by position and methylation of C not given here; 2'-MOE gapmer) | at least 35%
19 | ISIS 209529: 2′-MOE gapmer, phosphorothioate backbone, sequence cccagccacatatggtcagc (antisense CCCAGCCACATATGGTCAGC; all phosphorothioate, sugars by position and methylation of C not given here; 2'-MOE gapmer) | at least 35%
20 | ISIS 209530: 2′-MOE gapmer, phosphorothioate backbone, sequence ttacaggatccacataggag (antisense TTACAGGATCCACATAGGAG; all phosphorothioate, sugars by position and methylation of C not given here; 2'-MOE gapmer) | at least 35%
21 | ISIS 209533: 2′-MOE gapmer, phosphorothioate backbone, sequence caccactggcaaagcaaaat (antisense CACCACTGGCAAAGCAAAAT; all phosphorothioate, sugars by position and methylation of C not given here; 2'-MOE gapmer) | at least 35%
22 | ISIS 209534: 2′-MOE gapmer, phosphorothioate backbone, sequence agcattacttcatataaggg (antisense AGCATTACTTCATATAAGGG; all phosphorothioate, sugars by position and methylation of C not given here; 2'-MOE gapmer) | at least 35%
23 | ISIS 209535: 2′-MOE gapmer, phosphorothioate backbone, sequence ataacaatacaagtcctatg (antisense ATAACAATACAAGTCCTATG; all phosphorothioate, sugars by position and methylation of C not given here; 2'-MOE gapmer) | at least 35%
24 | ISIS 209536: 2′-MOE gapmer, phosphorothioate backbone, sequence cctcccatactagagaagta (antisense CCTCCCATACTAGAGAAGTA; all phosphorothioate, sugars by position and methylation of C not given here; 2'-MOE gapmer) | at least 35%
25 | ISIS 209537: 2′-MOE gapmer, phosphorothioate backbone, sequence agaggtttatctgccaaaac (antisense AGAGGTTTATCTGCCAAAAC; all phosphorothioate, sugars by position and methylation of C not given here; 2'-MOE gapmer) | at least 35%
26 | ISIS 209539: 2′-MOE gapmer, phosphorothioate backbone, sequence gcttccccattgctgttagg (antisense GCTTCCCCATTGCTGTTAGG; all phosphorothioate, sugars by position and methylation of C not given here; 2'-MOE gapmer) | at least 35%
27 | ISIS 209540: 2′-MOE gapmer, phosphorothioate backbone, sequence cacatcccttgtaagttgga (antisense CACATCCCTTGTAAGTTGGA; all phosphorothioate, sugars by position and methylation of C not given here; 2'-MOE gapmer) | at least 35%
